Assay results: patent US20110086862A1, “POLYMORPHS OF PARDOPRUNOX” (priority 2009, published 2011)

Columns and labels:
[1] = target: dopamine-D2 receptor (Homo sapiens, UniProt P14416); details: cited from earlier work
[2] = target: T1, serotonin 5-HT1A receptor (Homo sapiens, UniProt P08908); details: cited from earlier work
T1 sequence (P08908 1-422): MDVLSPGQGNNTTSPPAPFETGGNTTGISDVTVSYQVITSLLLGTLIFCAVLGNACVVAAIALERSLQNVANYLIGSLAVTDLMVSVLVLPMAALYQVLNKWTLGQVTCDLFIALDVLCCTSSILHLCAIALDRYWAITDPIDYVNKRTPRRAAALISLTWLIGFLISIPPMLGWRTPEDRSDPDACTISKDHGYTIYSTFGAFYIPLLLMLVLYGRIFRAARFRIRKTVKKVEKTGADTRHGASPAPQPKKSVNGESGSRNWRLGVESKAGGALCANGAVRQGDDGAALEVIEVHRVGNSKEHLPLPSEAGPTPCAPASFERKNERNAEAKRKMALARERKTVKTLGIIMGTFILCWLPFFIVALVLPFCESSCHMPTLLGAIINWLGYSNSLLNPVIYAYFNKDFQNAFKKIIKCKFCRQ

[3] = Ageing experiments of α- and β-polymorphs (crystal modification by XRPD); type: physicochemical; details: shaken one week
Protocol: (§1) Relative stability of the α- and β-polymorphs of pardoprunox were determined by ageing and slurry experiments in six different solvents. The crystal modification of the solid material was determined using XRPD. For mixtures, amounts of α and β were determined using semi-quantitative calculations, based on the ratio of peak heights of specific reflections of the α- and β-polymorphs, respectively. A peak at 23.3° 2θwas used for α-polymorphs, and one at 15.3° 2θfor β-polymorphs. Due to effects of sample preparation, crystal orientation and differences in response factors, this estimation is semi-quantitative.
(§2) For ageing experiments, two series of saturated solutions of a specific polymorphic (α or β) form were shaken at 375 rpm, for one week, in six different solvents, one series at ambient temperature (ca. 20° C.) and one at 50° C. 40 ml tubes were filled with 0.5 g of the appropriate polymorphic form, and 25 ml of solvent (or mixture). After a week the precipitate was filtered and dried at ambient temperature under reduced pressure.

[4] = Slurry experiments of α- and β-polymorphs (crystal modification by XRPD); type: physicochemical; details: for Crystal modifications by XRPD, slurry experiment: before/after seeding not distinguished; for Crystal modifications by XRPD, slurry experiment, after seeding: seeded with 15-20 mg of the other form, shaken 1 week; for Crystal modifications by XRPD, slurry experiment, before seeding: shaken 1 day
Protocol: as §1
(§3) For slurry experiments, two series of saturated solutions of a specific polymorphic (α or β) form were shaken at 375 rpm for one day in six different solvents, one series at ambient temperature and one at 50° C. 40 ml tubes were filled with 0.5 g of the appropriate polymorphic form, and 25 ml of solvent (or mixture). After 1 day about 2.5 ml of sample was taken from each tube, filtered and dried at ambient temperature under reduced pressure. Subsequently the crystal modification was determined. After the samples were taken each tube was seeded with 15-20 mg of the other polymorphic form. Then, all tubes were shaken for 1 week at 375 rpm at ambient temperature or at 50° C. Finally, the precipitate was filtered and dried at ambient temperature under reduced pressure and the crystal modification was determined.

[5] = Stability tests: relative stability from ageing and slurry experiments; type: physicochemical; details: for Relative stability of the polymorphs: at the applied experimental conditions (ageing and slurry), hydrochloride; for Conversion from β- to α-polymorph: ageing and slurry, ambient temperature and 50° C.
Protocol: as §1, §2, §3

[6] = toluene/methanol (10:3), 50° C.
[7] = toluene/methanol (10:3), ambient

dopamine-D2 receptor, sequence (P14416 whole entry, species assumed): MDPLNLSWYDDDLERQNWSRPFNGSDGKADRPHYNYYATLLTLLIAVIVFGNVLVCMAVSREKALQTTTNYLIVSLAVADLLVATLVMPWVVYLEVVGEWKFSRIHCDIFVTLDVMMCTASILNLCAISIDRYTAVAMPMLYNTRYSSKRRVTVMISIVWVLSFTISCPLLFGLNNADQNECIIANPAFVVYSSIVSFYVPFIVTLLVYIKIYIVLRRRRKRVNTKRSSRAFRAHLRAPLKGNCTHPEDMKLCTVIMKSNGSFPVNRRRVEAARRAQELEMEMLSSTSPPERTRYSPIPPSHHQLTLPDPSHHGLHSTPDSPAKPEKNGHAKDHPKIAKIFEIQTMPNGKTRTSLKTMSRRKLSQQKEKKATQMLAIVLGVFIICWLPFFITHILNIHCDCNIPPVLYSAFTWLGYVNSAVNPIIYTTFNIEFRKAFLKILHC

## CN1CCN(c2cccc3[nH]c(=O)oc23)CC1.Cl [pardoprunox, 7-(4-methyl-1-piperazinyl)benzoxazol-2(3H)-one mono-hydrochloride]
[1]
  Functional activity at dopamine-D2 receptor: partial dopamine-D2 receptor agonist
[2]
  Functional activity at serotonin 5-HT1A receptor: full serotonin 5-HT1A receptor agonist

## CN1CCN(c2cccc3[nH]c(=O)oc23)CC1.Cl [α-polymorph, 7-[(4-methyl)-1-piperazinyl]-2(3H)-benzoxazolone hydrochloride]
[3]; 1,2-dimethoxy ethane, 50° C., hydrochloride
  Crystal modifications by XRPD after ageing: α
[3]; 1,2-dimethoxy ethane, ambient, hydrochloride
  Crystal modifications by XRPD after ageing: α
[3]; 96% ethanol, 50° C.
  Crystal modifications by XRPD after ageing: α
[3]; acetonitrile, 50° C., hydrochloride
  Crystal modifications by XRPD after ageing: α
[3]; acetonitrile, ambient, hydrochloride
  Crystal modifications by XRPD after ageing: α
[3]; ethyl acetate/isopropanol (2:1), 50° C., hydrochloride
  Crystal modifications by XRPD after ageing: α
[3]; ethyl acetate/isopropanol (2:1), ambient, hydrochloride
  Crystal modifications by XRPD after ageing: α
[3]; methyl ethyl ketone, 50° C., hydrochloride
  Crystal modifications by XRPD after ageing: α
[3]; methyl ethyl ketone, ambient, hydrochloride
  Crystal modifications by XRPD after ageing: α
[3]; [6]
  Crystal modifications by XRPD after ageing: α
[3]; [7]
  Crystal modifications by XRPD after ageing: α
[4]; 1,2-dimethoxy ethane, 50° C.
  Crystal modifications by XRPD, slurry experiment: α
[4]; 1,2-dimethoxy ethane, ambient
  Crystal modifications by XRPD, slurry experiment: α
[4]; 96% ethanol, 50° C.
  Crystal modifications by XRPD, slurry experiment: α
[4]; acetonitrile, 50° C.
  Crystal modifications by XRPD, slurry experiment: α
[4]; acetonitrile, ambient
  Crystal modifications by XRPD, slurry experiment: α
[4]; ethyl acetate/isopropanol (2:1), 50° C.
  Crystal modifications by XRPD, slurry experiment: α
[4]; ethyl acetate/isopropanol (2:1), ambient
  Crystal modifications by XRPD, slurry experiment: α
[4]; methyl ethyl ketone, 50° C.
  Crystal modifications by XRPD, slurry experiment: α
[4]; methyl ethyl ketone, ambient
  Crystal modifications by XRPD, slurry experiment: α
[4]; [6]
  Crystal modifications by XRPD, slurry experiment: α
[4]; [7]
  Crystal modifications by XRPD, slurry experiment: α
[5]; ageing and slurry experiments, all solvents
  Conversion from α- to β-polymorph: Neither in ageing nor in slurry experiments, was conversion from α- to β-polymorph observed
[5]; listed as a-polymorph
  Relative stability of the polymorphs: more stable than the β-polymorph
[5]; listed as crystal modification a
  Relative stability of the polymorphs: more stable than crystal modification β

## CN1CCN(c2cccc3[nH]c(=O)oc23)CC1.Cl [β-polymorph, 7-[(4-methyl)-1-piperazinyl]-2(3H)-benzoxazolone hydrochloride]
[3]; 96% ethanol, 50° C.
  Crystal modifications by XRPD after ageing: α
[3]; 96% ethanol, ambient (ca. 20° C.), hydrochloride
  Crystal modifications by XRPD after ageing: α
[3]; [6]
  Crystal modifications by XRPD after ageing: α
[3]; [7]
  Crystal modifications by XRPD after ageing: α
[4]; 96% ethanol, 50° C.
  Crystal modifications by XRPD, slurry experiment, after seeding: α
  Crystal modifications by XRPD, slurry experiment, before seeding: α
[4]; 96% ethanol, ambient
  Crystal modifications by XRPD, slurry experiment, after seeding: α
  Crystal modifications by XRPD, slurry experiment, before seeding: α
[4]; acetonitrile, 50° C.
  Crystal modifications by XRPD, slurry experiment, after seeding: α
[4]; [6]
  Crystal modifications by XRPD, slurry experiment, after seeding: α
  Crystal modifications by XRPD, slurry experiment, before seeding: α
[4]; [7]
  Crystal modifications by XRPD, slurry experiment, after seeding: α
[5]; acetonitrile
  Conversion from β- to α-polymorph: substantial conversion
[5]; ethanol and 10:3 toluene/methanol mixture
  Conversion from β- to α-polymorph: complete conversion
[5]; other solvents
  Conversion from β- to α-polymorph: the conversion was minimal
